The values below come from US20200247851A1, “Methods For Generating Epitopes For Binding To Recognition Molecules By Templated Assembly” (TriBiotica LLC, priority 2017, published 2020).

No end group written: not given here. *: point of attachment. Biotin = O=C1N[C@H]2[C@H](CS[C@H]2CCCCC(=O)*)N1

The subject of data set [1] is trastuzumab. The experiment in a line: Flow analysis of trastuzumab mimotope placed on HER-2-negative MU89 cells via streptavidin bridge. The data set is classed as cell-based. The following applies: MU89 melanoma cells, W6/32 biotinylated primary antibody, fluoresceinated goat anti-kappa read-out. From the text:
In common with Example 11, for the repurposing of an antibody epitope by placement of a peptide mimotope on a cell surface, a surface marker for the cell type of interest was defined. […] The complex (biotinylated template-streptavidin-primary antibody) was then assembled on MU89 surface. Following that procedure and washing, biotinylated mimotope (Biotin-[…] ELWELSH; SEQ ID NO:35) was allowed to bind to the surface streptavidin. […] Subsequently, since trastuzumab is a humanized antibody with kappa light chains, a fluoresceinated goat anti-kappa antibody served to provide the final fluorescent read-out enabling flow analysis. […] However, it should be noted that while an amplification effect for fluorescent signal results from the multi-layered sandwich technique of this approach, the overall signal is ultimately linked to the level of expression of the primary antibody target.

The subject of data set [2] is trastuzumab. As to conditions: L1 Q substitution; cited from earlier work.
Data set [3] has as its system bilabeled fluorescent probe sequence. As to conditions: human EBV-transformed B lymphoid cell line, biotinylated W6/32, streptavidin bridge.
Method: Following incubation of cells (10^6/ml) with a biotin conjugate of primary antibody pan-specific for human Class I (W6/32) and washing in phosphate-buffered saline (pH 7.2; PBS), the cell preparation was treated with a large excess of unmodified tetravalent streptavidin (Sigma; 10 μl each of 100 μM streptavidin per 100 μl of cells at 10^6/ml) for 30 minutes at room temperature, and rewashed in PBS.
Following this, a biotinylated template oligonucleotide was added, such that its terminal biotin group becomes bound to free sites on the surface streptavidin. […] The DNA template sequence used in this example corresponds to a transcribed segment of human papillomavirus (HPV), of sequence: 5′-Biotin-[sequence] […] As a control, a scrambled version of this sequence was used: 5′ Biotin-[sequence]
The subject of data set [4] is trastuzumab. The experiment in a line: ELISA of biotinylated mimotope peptides on streptavidin plates titrated with trastuzumab. The data set is classed as binding. As to conditions: 400 nM biotinylated peptide coating, trastuzumab 2-fold serial dilutions. The procedure: For intact mimotopes and their analogs, peptides with an N-terminal biotin label and a flexible spacer composed of serine and glycine residues (typically […]; SEQ ID NO:110) were used.
ELISA plates coated with tetravalent streptavidin were obtained for the assay, either from a commercial source (such as Thermofisher) or made by incubating polystyrene 96-well ELISA plates with solutions of streptavidin in PBS (1 μM) 16 hours/4° C., followed by blocking with a solution of bovine serum albumin (BSA) at 10 mg/ml in PBS pH 7.2, also for 16 hours/4° C. Plates were then emptied of solutions and washed three times with 100 μl PBS containing 0.05% Tween 20 (PBS-Tw20).
A suitable dilution series of the biotinylated peptides of interest was prepared in PBS, and at least duplicates (or higher numbers of replicates) were added to pre-designated wells in 100 μl volumes, and the plate incubated for 2 hours at room temperature (covered in Saran wrap). […] After a 30 minute incubation, reactions were stopped with 1 M sulfuric acid, and results assessed with an automated plate reader for absorbances at 450 nm. Final data was compiled from averaged replicates for each determination with subtraction of absorbances observed in wells where no target peptide antigen was added. […]

Data set [5] has as its system biotinylated anti-BRD7 Fab (bFab). The experiment in a line: Direct Binding Assay using streptavidin magnetic beads, denaturing gel read-out. Also noted: species or system murine. The following applies: with vs without bFab, PBSM. How it is done: Aptamers were incubated with bFab (2.5-fold molar excess), then bound to SAMBs. Supernatants were taken, and the SAMBs washed 3 times. Bound material was eluted with 0.1 M NaOH, and then precipitated, washed, dried, and reconstituted before loading samples on a denaturing acrylamide gel.
To assess binding of 10th-cycle singlet aptamers to the selective agent (the Fab target), direct binding assays were carried out. Here, single-stranded aptamer preparations (self-annealed as usual) were incubated with or without biotinylated Fab fragments in PBSM, followed by adsorption onto streptavidin magnetic beads. After this incubation period, the beads were magnetically separated, and the supernatants retained. […]
Despite successful in situ assembly of binary aptamers upon the target to which they were bound (as in Example 1), it could not be assumed that binary aptamers formed in solution would be capable of binding the same targets. This was assessed using the same aptamers as used in direct binding tests (Example 3; 228/10AptR1 and 229/10AptL3), but where the aptamers were initially ligated together by means of the same splint oligonucleotide as used in Example 1. […]

For “Bio-SGGGSGGGQLGPYELWELSH (Biotin-SGGGSGGGQLGPYELWELSH) [unmodified mimotope]”, the “fluorescent signal from trastuzumab” value in the data set on trastuzumab [1] is on record as “clear-cut fluorescent signal”. For “QLGPYEL WELSH (QLGPYELWELSH; segment of the mimotope) [mimotope for trastuzumab]”, in the data set on trastuzumab [2], the “binding affinity relative to the initial mimotope LLGPYELWEL SH” value is “higher binding affinity”. Turning to “5′-Biotin-TAACTGTCAAAAGCCACTGTGTC CTGAAGAAAAGCAAAGACATCTGGACAAAAAGC”, the “fluorescence signal of bilabeled probe hybridized to surface template” value in data set [3] is on record as “significant signal”.

“Bio-SGGGSGGGQLGPYELWEL CH (Biotin-SGGGSGGGQLGPYELWELCH) [cysteine-modified mimotope]”: in the data set on trastuzumab [4], the “recognition by Trastuzumab compared with the unmodified mimotope” value is reported as “almost the same extent” and the “slope of trastuzumab titration curve, less than that seen for the unmodified peptide” value is “approximately 10%”. For “5′ Biotin-TAGCGCAAATAAGCCGCCAGAAC GATGATATAAACAGCATTAGGTAAGCTACAACA [control scrambled sequence, reference compound]”, the “fluorescence signal of bilabeled probe hybridized to surface template” value in data set [3] is reported as “not”.

B1: GCAAAGACATCTGGACA CGCCACTTATAGTCTACGTGAAGCACTGCGCTGGAACAGCCTAAAAAAGGAGAAGG AGACTTAGAGGC (nucleic acid)
DNA: GCAAAGACATCTGGACACGCCACTTATAGTCTACGTGAAGCACTGCGCTGGAACAGCCTAAAAAAGGAGAAGGAGACTTAGAGGC
modifications: chemistry not given here
Consider B1, for which, in data set [5], the “binding to biotinylated Fab (bound material eluted from streptavidin magnetic beads)” value was “not”.
